This assay deals with chronic Foot Rot. Put plainly: Chronic Foot Rot with proliferative mass in a heifer (Example 25). The following applies: injectable antibiotic for 7 days, before cream treatment. The assay is classed as in vivo, American Shorthorn heifer. From the text:
A two-year old female American Shorthorn heifer was presented with lameness and a proliferative mass (3″ in diameter)with associated swelling and large dense scab between the digits of the left hind foot diagnosed as chronic Foot Rot. […] After 4 months lameness reoccurred and the area again became inflamed. […] A surgical consultation determined that the area needed to be surgically excised under general anesthesia. Due to late term pregnancy, surgery was postponed until after delivery. While waiting for surgery, the cream of Example 18 was applied once daily by massaging the cream into the area between the digits. […] No surgery or further antibiotic therapy was anticipated. FIG. 11A depicts the infection in the left hind foot before treatment and FIG. 11B depicts the infected area after 3 weeks of treatment with the cream of Example 18.

`CS(=O)(=O)c1ccc([C@@H](O)[C@@H](CF)NC(=O)C(Cl)Cl)cc1` [Nuflor]: the lameness entry is given as “reduced lameness” and the “reduction of mass size” value is given as “approximately ⅓”.

Values taken from patent publication US10500219B2, “Compositions and methods for tissue regeneration” (ORBIS HEALTH SOLUTIONS LLC, priority 2012, dated 2019).
